Data reported in ChEMBL document CHEMBL1201862, “PubChem BioAssay data set” (2004).
The source made the active and inactive calls.

Experiments:
[1] = target: E3 ubiquitin-protein ligase Mdm2 (Homo sapiens, UniProt Q00987); assay: enhancers of MDM2-luciferase reporter signal, concentration-effect titration, project on inhibitors of MDM2 ubiquitin ligase, cellular assay, luminescent readout, 384-well plate format (AID 1394); type: functional;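 further: MDM2 E3 inhibitors raise luminescence so EC50 is for signal enhancement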
Major prion protein = Major prion protein (Homo sapiens, UniProt P04156); type: functional, cell-based
[2] = target: Mitogen-activated protein kinase 10 (Homo sapiens, UniProt P53779); assay: Dose response biochemical screening assay for inhibitors of c-Jun N-Terminal Kinase 3 (JNK3). [Related pubchem assays: 746 ]
H9c2 = assay: cells; type: functional, cell-based; conditions: Rattus norvegicus, H9c2, Myocardium;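 further: confirmatory concentration-response retest of ultra-high-throughput screening hits for modulation of myocardial damage; cell death induced by hydrogen peroxide oxidative stress; compound pretreatment for 60 min then peroxide exposure for 2 h; potency is for protecting the cells against peroxide damage rather than for killing them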
[3] = Jurkat T cell cytotoxicity, dose response, cytotoxicity control for P. falciparum gametocyte viability project, luminescence (AID 1117277); type: functional, cell-based;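 further: potency reflects loss of cellular ATP meaning fewer viable cells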
[4] = P. falciparum late gametocyte killing, dose response, luminescence (AID 1117278); type: functional, cell-based;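 further: gametocytes exposed to compound for 24 hours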
[5] = target: T1, Zinc finger protein mex-5 (Caenorhabditis elegans, UniProt Q9XUB2); assay: MEX-5/TCR-2 RNA interaction inhibitors, dose response, biochemical, C. elegans, fluorescence polarization (AID 1960)
T1 sequence (Q9XUB2 whole entry): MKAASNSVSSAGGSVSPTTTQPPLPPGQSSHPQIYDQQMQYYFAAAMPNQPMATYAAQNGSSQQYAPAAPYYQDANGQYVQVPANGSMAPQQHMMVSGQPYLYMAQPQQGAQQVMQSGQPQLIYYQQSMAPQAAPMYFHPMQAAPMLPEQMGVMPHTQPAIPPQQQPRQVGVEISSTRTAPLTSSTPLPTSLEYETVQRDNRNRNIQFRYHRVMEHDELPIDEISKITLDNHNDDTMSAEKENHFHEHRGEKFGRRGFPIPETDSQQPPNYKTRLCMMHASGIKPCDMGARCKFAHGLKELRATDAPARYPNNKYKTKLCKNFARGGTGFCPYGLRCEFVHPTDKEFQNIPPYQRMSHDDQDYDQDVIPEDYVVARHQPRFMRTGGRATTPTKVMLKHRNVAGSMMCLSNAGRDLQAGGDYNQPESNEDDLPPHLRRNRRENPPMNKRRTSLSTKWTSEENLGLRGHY

[6] = target: DNA (cytosine-5)-methyltransferase 1 (Homo sapiens, UniProt P26358); assay: DNMT1 methyltransferase inhibitors, confirmation, biochemical, fluorescent molecular beacon (AID 602386); type: functional
Cysteine protease ATG4B = target: T2, Cysteine protease ATG4B (Homo sapiens, UniProt Q9Y4P1); type: functional;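 further: Fluorescence-based dose-response confirmation assay measuring inhibition of ATG4B activity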
T2 sequence (Q9Y4P1 whole entry): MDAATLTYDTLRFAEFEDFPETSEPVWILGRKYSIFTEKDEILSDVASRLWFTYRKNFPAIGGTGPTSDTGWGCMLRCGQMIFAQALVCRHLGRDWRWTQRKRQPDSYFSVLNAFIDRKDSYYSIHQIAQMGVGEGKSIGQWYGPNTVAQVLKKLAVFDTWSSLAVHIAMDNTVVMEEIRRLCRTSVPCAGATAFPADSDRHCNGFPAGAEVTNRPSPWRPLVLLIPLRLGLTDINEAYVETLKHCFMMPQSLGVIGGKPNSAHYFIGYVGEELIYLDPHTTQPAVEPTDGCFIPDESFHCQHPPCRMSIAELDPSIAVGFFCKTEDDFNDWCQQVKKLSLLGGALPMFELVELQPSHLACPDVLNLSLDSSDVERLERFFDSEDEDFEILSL

Aminopeptidase N = target: T3, Aminopeptidase N (Plasmodium falciparum FcB1/Columbia, UniProt O96935); assay: P. falciparum M1AAP inhibitors, biochemical, fluorogenic H-Leu-NHMec substrate, 1536-well (AID 1445); design: species or system Plasmodium falciparum 3D7, 3D7
T3 sequence (O96935 whole entry): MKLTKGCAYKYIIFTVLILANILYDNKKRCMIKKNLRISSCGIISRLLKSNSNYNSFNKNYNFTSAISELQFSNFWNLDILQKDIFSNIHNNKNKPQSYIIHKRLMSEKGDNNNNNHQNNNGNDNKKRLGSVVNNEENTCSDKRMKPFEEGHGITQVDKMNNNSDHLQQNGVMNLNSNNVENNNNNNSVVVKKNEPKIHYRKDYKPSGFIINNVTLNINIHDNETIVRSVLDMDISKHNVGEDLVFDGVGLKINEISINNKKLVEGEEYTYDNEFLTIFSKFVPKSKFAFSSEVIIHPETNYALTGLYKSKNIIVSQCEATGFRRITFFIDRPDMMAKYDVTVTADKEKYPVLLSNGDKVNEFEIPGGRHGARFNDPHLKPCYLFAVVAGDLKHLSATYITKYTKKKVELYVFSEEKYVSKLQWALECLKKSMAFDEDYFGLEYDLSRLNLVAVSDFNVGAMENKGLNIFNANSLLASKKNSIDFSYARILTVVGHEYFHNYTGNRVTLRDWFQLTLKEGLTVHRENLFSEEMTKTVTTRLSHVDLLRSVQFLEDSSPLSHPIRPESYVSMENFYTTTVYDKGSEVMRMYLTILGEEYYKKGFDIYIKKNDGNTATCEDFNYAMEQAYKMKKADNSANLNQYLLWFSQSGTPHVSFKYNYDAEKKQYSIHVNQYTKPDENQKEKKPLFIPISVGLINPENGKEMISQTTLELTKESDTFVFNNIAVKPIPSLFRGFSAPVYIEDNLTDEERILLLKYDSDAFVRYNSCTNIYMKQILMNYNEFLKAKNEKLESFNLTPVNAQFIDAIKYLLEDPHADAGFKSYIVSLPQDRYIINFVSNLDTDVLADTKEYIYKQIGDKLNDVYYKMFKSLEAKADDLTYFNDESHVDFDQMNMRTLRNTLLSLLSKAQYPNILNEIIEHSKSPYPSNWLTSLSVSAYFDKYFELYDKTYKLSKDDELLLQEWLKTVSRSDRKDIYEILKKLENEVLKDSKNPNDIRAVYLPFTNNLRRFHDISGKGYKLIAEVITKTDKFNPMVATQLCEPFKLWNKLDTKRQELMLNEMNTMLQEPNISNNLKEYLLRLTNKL

[7] = target: Bifunctional protein GlmU (Mycobacterium tuberculosis, UniProt P9WMN3); assay: Inhibitors of Mycobacterial Glucosamine-1-phosphate acetyl transferase (GlmU). Secondary screen.; design: species or system Mycobacterium tuberculosis H37Rv
Phospholipase A2 = Phospholipase A2 (Homo sapiens, UniProt P04054); type: functional;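 further: confirmatory dose-response counterscreen on phospholipase A2, testing hits that came from an ultra-high-throughput screen for ATG4B inhibitors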
[8] = target: T4, RNA-binding protein pos-1 (Caenorhabditis elegans, UniProt G5EF15); assay: inhibitors of POS-1/mex-3 RNA binding, dose response, biochemical, fluorescence polarization (AID 1964);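 further: purified POS-1 fused to maltose binding protein made in E. coli; potency of compounds blocking POS-1 binding to fluorescent RNA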
T4 sequence (G5EF15 whole entry): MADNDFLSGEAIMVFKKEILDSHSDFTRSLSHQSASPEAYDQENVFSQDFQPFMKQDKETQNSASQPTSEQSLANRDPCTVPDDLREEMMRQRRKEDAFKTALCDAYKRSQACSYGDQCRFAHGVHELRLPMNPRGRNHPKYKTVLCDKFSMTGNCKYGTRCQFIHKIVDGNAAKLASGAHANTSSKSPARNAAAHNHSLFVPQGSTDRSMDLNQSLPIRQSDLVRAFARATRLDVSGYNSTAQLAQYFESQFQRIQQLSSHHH

[9] = target: Heat shock protein HSP 90-alpha (Homo sapiens, UniProt P07900); assay: Luminescence-based dose response biochemical high throughput screening assay for inhibitors of the Heat Shock Protein 90 (HSP90). [Related pubchem assays: 1831 (Summary AID.), 1846 (Confirmation screen.), 1789 (Primary screen.)]

Compound: Cc1nc(CSc2nsc(/C=C/N(C)C)c2C#N)cs1
- EC50 [1]: 19.8 µM (not active)

Compound: Brc1ccc(-c2nn3c(-c4ccco4)nnc3s2)o1
- IC50 (Major prion protein): 4.14 µM (active)
- IC50 [2]: 58 µM (not active)
- IC50 (cells): > 138 µM (inactive)
- IC50 (H9c2): > 79 µM (inactive)

Compound: CC(C)c1nc2oc3c(O)ncnc3c2c2c1CCC2
- IC50 [3]: > 83.3 µM (inactive)
- IC50 [4]: > 109 µM (inactive)

Compound: O=C(O)c1ccc(-c2ccc(/C=C3\NC(=O)N(Cc4ccc(Cl)cc4)C3=O)o2)cc1Cl
- EC50 [5]: 23.5 µM (active)
- IC50 [6]: 4.54 µM (active)
- IC50 (Cysteine protease ATG4B): 16.2 µM (active)
- IC50 (Aminopeptidase N): 40.8 µM (active)
- IC50 [7]: 67.1 µM (active)
- IC50 (Phospholipase A2): 16.1 µM (active)
- EC50 [8]: 29.4 µM (active)

Compound: COc1ccc(-c2[nH]ncc2-c2csc(C)n2)c(O)c1
- IC50 [3]: > 83.3 µM (inactive)
- IC50 [4]: > 109 µM (inactive)

Compound: CCOC(=O)c1csc(NC(=O)c2cc3ccccc3o2)n1
- IC50 [9]: 0.784 µM (active)
